According to patent publication US7194978B2, “Inducing sterility in fish by disrupting the development of the GnRH system” (University of Maryland Biotechnology Institute, priority 2003, dated 2007):

How the values were obtained:
[1] = test system: cGnRH-II expression; experiment: cGnRH-II transcript levels in seabream larvae after GABA immersion, quantitative RT-PCR; type: in vivo, gilthead seabream (Sparus aurata); conditions: 2-week-old seabream larvae; immersion in GABA 10^−7 to 10^−3 M for 18 hours; sampled 24 hours after treatment
Experimental: (§1) FIGS. 2A, B and C show the effect of GABA treatment on GnRH gene expression during development. Larvae were sampled 24 hours after overnight treatment at 3 days pf ( ? ), 1 week pf ( ? ) or 2 weeks pf ( ? ) and levels of GnRH transcript were measured by quantitative RT-PCR Values on the Y axis are expressed as copy number/20 ng total RNA. Values on the X axis range from 0 to 1 mM GABA. 100 ng total RNA was isolated from tissues using a modified acid-phenol extraction method (TRI REAGENT, MRC, Inc., Cincinnati, Ohio) and reverse transcribed into cDNA using random hexamers and MMLV reverse transcriptase. PCR was performed in 96-well plates on diluted cDNA templates using SYBR® Green PCR Core Reagent (PE Applied Biosystems, Foster City, Calif.) and the relevant GnRH primers. […] For each reaction, the Prism® 7700 generated an amplification plot of fluorescence signal versus cycle number, and CT (the fractional cycle number at which fluorescence passes a baseline threshold value) was determined (Fink et al., 1998). […] Quantitation of the amount of target in each sample was accomplished by comparing CT values of unknowns to standards to determine initial copy number. […]
(§2) Seabream. […] At 24 hours post-treatment, transcript levels for each of the 3 GnRHs in seabream were determined using real-time, fluorescence-based quantitative RT-PCR assays. […]

[2] = test system: forebrain (TN) GnRH neurons; experiment: Developmental migration of GnRH neurons in zebrafish larvae, whole-mount ISH; type: in vivo, zebrafish (Danio rerio); conditions: sampled at 7, 9, 10, 12 days pf
Source text: Digoxigenin (DIG)-labeled complimentary RNA (cRNA) probe was synthesized from plasmid DNA, containing the seabream TN GnRH cDNA, using T7 RNA polymerase. The probe was hybridized to cellular TN GnRH mRNA in whole, fixed 3–22 days pf of larvae. The hybridized probe was then detected with anti-DIG antibody conjugated to alkaline phosphatase (Anti-DIG-AP), and the complex (mRNA:DIG-labeled cRNA:Anti-DIG-AP) was detected by an enzymatic reaction of AP with a chromogenic substrate, which forms a precipitating dark purple pigment. The procedure was performed according to a standard published protocol for whole-mount ISH (Westerfield et al., 1995). The age of the larvae are boxed on the top left of each photograph. TN GnRH-expressing cells are indicated by an arrow.
FIGS. 3A, B and C show the effect of GABA-ergic compounds on developmental migration of TN GnRH neurons in zebrafish. […] Note the extent of neuronal migration toward the brain seen in untreated fish, as compared to treated fish. Whole-mount ISH analysis was done as described in FIG. 1. Differential interference contrasting microscopy was used to visualize TN GnRH hybridization in deep tissue layers of the nasal placode. All panels at 200×.
Zebrafish. Zebrafish larvae 5–8 days post-fertilization (dpf) and 7–10 dpf were immersed in GABA (1 mM) or Muscimol (100 micromolar). […]

[3] = test system: sGnRH gene expression; experiment: sGnRH transcript levels in seabream larvae after GABA immersion, quantitative RT-PCR; type: in vivo, gilthead seabream (Sparus aurata); conditions: immersion in GABA 10^−7 to 10^−3 M for 18 hours, sampled 24 hours after treatment
Experimental: FIGS. 2A, B and C show the effect of GABA treatment on GnRH gene expression during development. Larvae were sampled 24 hours after overnight treatment at 3 days pf ( ? ), 1 week pf ( ? ) or 2 weeks pf ( ? ) and levels of GnRH transcript were measured by quantitative RT-PCR Values on the Y axis are expressed as copy number/20 ng total RNA. Values on the X axis range from 0 to 1 mM GABA. 100 ng total RNA was isolated from tissues using a modified acid-phenol extraction method (TRI REAGENT, MRC, Inc., Cincinnati, Ohio) and reverse transcribed into cDNA using random hexamers and MMLV reverse transcriptase. PCR was performed in 96-well plates on diluted cDNA templates using SYBR® Green PCR Core Reagent (PE Applied Biosystems, Foster City, Calif.) and the relevant GnRH primers. Primers were designed to span intron/exon boundaries in order to avoid amplification of genomic DNA. Amplification reactions were carried out using the ABI Prism® 7700 Sequence Detection System (PE Applied Biosystems), which consists of a built-in thermalcycler, laser irradiation and CCD detector system, and software analysis package. For each reaction, the Prism® 7700 generated an amplification plot of fluorescence signal versus cycle number, and CT (the fractional cycle number at which fluorescence passes a baseline threshold value) was determined (Fink et al., 1998). […] Quantitation of the amount of target in each sample was accomplished by comparing CT values of unknowns to standards to determine initial copy number. […]
as §2
Seabream larvae at 3 days, 1 week and 2 weeks pf were immersed in various concentrations of GABA (10^−7 to 10^−3 M) for a period of 18 hours (200 larvae per treatment). Larvae were collected 24 hours after the treatments and transcript levels for each of the 3 GnRHs were determined using real-time, fluorescence-based quantitative RT-PCR assays.

[4] = test system: zebrafish gonads; experiment: Gonadal development in zebrafish, histological analysis of the gonads at 9 weeks; type: in vivo, zebrafish (Danio rerio); conditions: histology after 9 weeks of growth
Experimental: FIGS. 4A. B and C show the effect of GABA-ergic compounds on gonadal development in zebrafish. Hematoxylineosin staining of gonadal tissues of 9-week old zebrafish exposed at 7–10 days pf to A) no treatment, B) 1 mM GABA and C) 100 μM Muscimol. Note greater degree of organization and more advanced gamete development in A), compared to B) and C). s: somatic cells; o: oogonia; v: oocytes in early stages of vitellogenesis; v*: vitellogenic oocytes with abnormal follicle development. A), C) at 200×; B) 400×.
Zebrafish. Zebrafish larvae 5–8 days post-fertilization (dpf) and 7–10 dpf were immersed in GABA (1 mM) or Muscimol (100 micromolar). Muscimol is a potent GABA agonist that acts specifically on GABAA receptor subtypes. Similar to the post-treatment assays conducted on seabream larvae, zebrafish tissue samples (n=12) were collected at 7, 9, 10, and 12 days pf and also after 9 weeks of growth for detection/analysis of GnRH neuron development and histological analysis of the gonads. […] Confirmation is made to determine the effectiveness of the treatment prior to sexual maturation (or lack thereof).
Zebrafish larvae were immersed in GABA (1 mM) or Muscimol (100 micromolar) at 5–8 days pf and 7–10 days pf. (Muscimol is a potent GABA agonist that acts specifically on GABAA receptor subtypes). Samples (n=12) were collected at 7, 9, 10, and 12 day pf for subsequent detection of GnRH neurons. […]

[5] = test system: sbGnRH transcript levels; experiment: sbGnRH transcript levels in seabream larvae after GABA immersion, quantitative RT-PCR; type: in vivo, gilthead seabream (Sparus aurata); conditions: seabream larvae 3 days, 1 week, 2 weeks pf; immersion in GABA 10^−7 to 10^−3 M for 18 hours
Experimental: as §1, §2

[6] = zebrafish larvae immersed in 1 mM GABA at 5–8 dpf and 7–10 dpf
[7] = zebrafish larvae immersed in 100 micromolar Muscimol at 5–8 dpf and 7–10 dpf

| SMILES | cGnRH-II expression [1] | migration of the GnRH neurons [2, 6] | sGnRH gene expression ([3]; 1-week-old seabream larvae) | sGnRH gene expression ([3]; 2-week-old seabream larvae) | sGnRH gene expression ([3]; 3-day-old seabream larvae) | gonadal development [4, 6] | sbGnRH transcript levels [5] | migration of the GnRH neurons [2, 7] | gonadal development [4, 7] |
| --- | --- | --- | --- | --- | --- | --- | --- | --- | --- |
| NCCCC(=O)O [GABA, Gamma-aminobutyric acid] | slight increase | clearly inhibited | dose-dependent decrease | no effect | no effect | clearly inhibited | no definitive effect seen |  |  |
| NCc1cc(=O)[nH]o1 [Muscimol] |  |  |  |  |  |  |  | clearly inhibited | clearly inhibited |
